Patent publication US20260070917A1, “CYCLIN DEPENDENT KINASE DEGRADERS AND METHODS OF USE THEREOF” (Differentiated Therapeutics Inc, priority 2023, published 2026)

Tests used:
Assay type in all cases: cell-based
[1] = target: T1, CDK2 (Homo sapiens, UniProt P24941); experiment: HiBit Assay Protocol for CDK2 (HIBIT protein quantification, degradation); settings: HEK293-CDK2-Hibit cells, compound treatment for 6 hours; for DC50: ABS DC50
T1 construct: host or cells: HEK293-CDK2-Hibit
How it was run: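 DC50 comes from a fitted curve of remaining CDK2-HiBiT luminescence, referenced to DMSO-treated cells and medium-only wells. HEK293-CDK2-HiBiT cells, plated the previous night, received compounds in a 10-point, 3-fold series for 6 h before lysis with LgBiT-containing Nano-Glo HiBiT reagent.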

[2] = target: T2, CDK9 (Homo sapiens, UniProt P50750); experiment: HiBit Assay Protocol for CDK9 (HIBIT protein quantification, degradation); settings: HEK293-CDK9-Hibit cells, compound treatment for 6 hours; for Dmax: 6 h, read-out: CDK9 HIBIT Protein Quantification Maximum
T2 construct: host or cells: HEK293-CDK9-Hibit
How it was run: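 Degradation read-out: luminescence after lytic HiBiT/LgBiT detection in HEK293-CDK9-HiBiT cells exposed 6 h to 10-point, 3-fold compound dilutions. Signal scaled between 0.1% DMSO-treated cells and medium alone; DC50 fitted from the curve.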

[3] = target: T3, CCNE1 (Homo sapiens, UniProt P24864); experiment: HiBit Assay Protocol for CCNE1 (HIBIT protein quantification, degradation); settings: HEK293-CCNE1-Hibit cells, compound treatment for 6 hours
T3 construct: host or cells: HEK293-CCNE1-Hibit
How it was run: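 Degradation readout: lytic Nano-Glo HiBiT luminescence after 6 h exposure of HEK293-CCNE1-HiBiT cells to 10-point, 3-fold serial dilutions. Signal was scaled between medium-only and DMSO-treated wells, and DC50 came from curve fits.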

T3 sequence (P24864 whole entry): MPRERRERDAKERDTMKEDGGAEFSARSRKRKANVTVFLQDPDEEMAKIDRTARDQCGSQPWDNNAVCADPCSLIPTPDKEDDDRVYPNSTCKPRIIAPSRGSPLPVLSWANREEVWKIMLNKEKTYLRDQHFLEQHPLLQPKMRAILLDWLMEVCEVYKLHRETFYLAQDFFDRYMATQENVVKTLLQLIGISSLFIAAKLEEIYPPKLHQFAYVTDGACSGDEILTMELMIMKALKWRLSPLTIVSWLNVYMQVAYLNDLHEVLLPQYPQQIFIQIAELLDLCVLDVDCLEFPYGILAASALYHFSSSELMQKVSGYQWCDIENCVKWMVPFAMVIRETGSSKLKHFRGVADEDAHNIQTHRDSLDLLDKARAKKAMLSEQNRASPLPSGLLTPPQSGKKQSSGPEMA
T2 sequence (P50750 whole entry): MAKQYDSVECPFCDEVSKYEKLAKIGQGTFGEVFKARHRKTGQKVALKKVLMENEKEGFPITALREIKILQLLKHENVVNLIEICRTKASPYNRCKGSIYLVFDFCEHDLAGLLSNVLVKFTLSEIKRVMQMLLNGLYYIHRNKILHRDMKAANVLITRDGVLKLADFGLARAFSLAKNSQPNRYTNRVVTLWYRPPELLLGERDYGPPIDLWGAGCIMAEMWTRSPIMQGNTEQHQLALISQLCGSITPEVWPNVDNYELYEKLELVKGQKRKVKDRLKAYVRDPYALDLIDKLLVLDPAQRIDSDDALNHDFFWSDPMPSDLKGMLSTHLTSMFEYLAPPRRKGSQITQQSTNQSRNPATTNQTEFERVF

| CDK2 HIBIT Protein Quantification Maximum [1] [%] | DC50 [1] [nM] | Dmax [2] [%] | CCNE1 HIBIT Protein Quantification Maximum [3] [%] | DC50 ([2]; ABS DC50) [nM] | Compound |
| --- | --- | --- | --- | --- | --- |
| 67 | 5 | 45 | 34 |  | CC1CCCC1N1C(=O)C2(CC2)c2cnc(NC3CCN(S(=O)(=O)C4CCN(C(=O)CCCCCCCCCc5ccc6c(c5)n(C)c(=O)n6C5CCC(=O)NC5=O)C4)CC3)nc21 (centres unmarked) [Compound 90] |
| 64 | 6 | 37 | 25 |  | CC1CCCC1N1C(=O)C2(CC2)c2cnc(NC3CCN(S(=O)(=O)N4CC(N(C)C(=O)CCCCc5cccc6c5n(C)c(=O)n6C5CCC(=O)NC5=O)C4)CC3)nc21 (centres unmarked) [Compound 91] |
| 39 |  | 26 | 7 |  | CC1CCCC1N1C(=O)C2(CC2)c2cnc(NC3CCN(S(=O)(=O)N4CC5CN(C(=O)CCCCc6cccc7c6n(C)c(=O)n7C6CCC(=O)NC6=O)CC5C4)CC3)nc21 (centres unmarked) [Compound 92] |
| 63 | 16 | 51 | 39 | 2 | CC1CCCC1N1C(=O)C2(CC2)c2cnc(NC3CCN(S(=O)(=O)N4CCC5(CCCN5C(=O)CCCCc5cccc6c5n(C)c(=O)n6C5CCC(=O)NC5=O)C4)CC3)nc21 (centres unmarked) [Compound 94] |
| 65 | 11 | 7 | 15 |  | CC1CCCC1N1C(=O)C2(CC2)c2cnc(NC3CCN(S(=O)(=O)N4CC5(CCCCN5C(=O)CCCCc5cccc6c5n(C)c(=O)n6C5CCC(=O)NC5=O)C4)CC3)nc21 (centres unmarked) [Compound 95] |
| 46 |  | 26 | 46 |  | CC1CCCC1N1C(=O)C2(CC2)c2cnc(NC3CCN(S(=O)(=O)N4CC5(CCCN(C(=O)CCCCc6cccc7c6n(C)c(=O)n7C6CCC(=O)NC6=O)C5)C4)CC3)nc21 (centres unmarked) [Compound 96] |
| 41 |  | 46 | 14 |  | CC1CCCC1N1C(=O)C2(CC2)c2cnc(NC3CCN(S(=O)(=O)N4CC5(CN(C(=O)CCCCc6cccc7c6n(C)c(=O)n7C6CCC(=O)NC6=O)C5)C4)CC3)nc21 (centres unmarked) [Compound 97] |
| 31 |  | 11 | 1 |  | CC1CCCC1N1C(=O)C2(CC2)c2cnc(NC3CCN(S(=O)(=O)N4CC5CN(C(=O)CCCCc6cccc7c6n(C)c(=O)n7C6CCC(=O)NC6=O)CC54)CC3)nc21 (centres unmarked) [Compound 99] |
| 62 | 6 | 34 | 31 |  | CC1CCCC1N1C(=O)C2(CC2)c2cnc(NC3CCN(S(=O)(=O)N4CCCN(C(=O)CCCCc5cccc6c5n(C)c(=O)n6C5CCC(=O)NC5=O)CC4)CC3)nc21 (centres unmarked) [Compound 100] |
| 38 |  | 23 | 47 |  | CC1CCCC1N1C(=O)C2(CC2)c2cnc(NC3CCN(S(=O)(=O)C4CCCN(C(=O)CCCCc5cccc6c5n(C)c(=O)n6C5CCC(=O)NC5=O)C4)CC3)nc21 (centres unmarked) [Compound 101] |
| 31 |  | 0 | 7 |  | CC1CCCC1N1C(=O)C2(CC2)c2cnc(NC3CCN(S(=O)(=O)N4CC5CN(C(=O)CCCCc6ccc7c(c6)n(C)c(=O)n7C6CCC(=O)NC6=O)CC5C4)CC3)nc21 (centres unmarked) [Compound 103] |
| 25 |  | 11 | 6 |  | CC1CCCC1N1C(=O)C2(CC2)c2cnc(NC3CCN(S(=O)(=O)N4CCCC45CCN(C(=O)CCCCc4ccc6c(c4)n(C)c(=O)n6C4CCC(=O)NC4=O)C5)CC3)nc21 (centres unmarked) [Compound 104] |
| 40 |  | 36 | 15 |  | CC1CCCC1N1C(=O)C2(CC2)c2cnc(NC3CCN(S(=O)(=O)N4CCC5(CCCN5C(=O)CCCCc5ccc6c(c5)n(C)c(=O)n6C5CCC(=O)NC5=O)C4)CC3)nc21 (centres unmarked) [Compound 105] |
| 32 |  | 12 | 3 |  | CC1CCCC1N1C(=O)C2(CC2)c2cnc(NC3CCN(S(=O)(=O)N4CC5(CCCCN5C(=O)CCCCc5ccc6c(c5)n(C)c(=O)n6C5CCC(=O)NC5=O)C4)CC3)nc21 (centres unmarked) [Compound 106] |
| 28 |  | 22 | 25 |  | CC1CCCC1N1C(=O)C2(CC2)c2cnc(NC3CCN(S(=O)(=O)N4CC5(CCCN(C(=O)CCCCc6ccc7c(c6)n(C)c(=O)n7C6CCC(=O)NC6=O)C5)C4)CC3)nc21 (centres unmarked) [Compound 107] |
| 42 |  | 4 | 16 |  | CC1CCCC1N1C(=O)C2(CC2)c2cnc(NC3CCN(S(=O)(=O)N4CC5(CN(C(=O)CCCCc6ccc7c(c6)n(C)c(=O)n7C6CCC(=O)NC6=O)C5)C4)CC3)nc21 (centres unmarked) [Compound 108] |
| 57 | 4 | 47 | 22 |  | CC1CCCC1N1C(=O)C2(CC2)c2cnc(NC3CCN(S(=O)(=O)N4CC5(CCN(C(=O)CCCCc6ccc7c(c6)n(C)c(=O)n7C6CCC(=O)NC6=O)CC5)C4)CC3)nc21 (centres unmarked) [Compound 109] |
| 20 |  | 14 | 5 |  | CC1CCCC1N1C(=O)C2(CC2)c2cnc(NC3CCN(S(=O)(=O)N4CC5C4CCN5C(=O)CCCCc4ccc5c(c4)n(C)c(=O)n5C4CCC(=O)NC4=O)CC3)nc21 (centres unmarked) [Compound 110] |
| 13 |  | 25 | 9 |  | CC1CCCC1N1C(=O)C2(CC2)c2cnc(NC3CCN(S(=O)(=O)N4CC5CN(C(=O)CCCCc6ccc7c(c6)n(C)c(=O)n7C6CCC(=O)NC6=O)CC54)CC3)nc21 (centres unmarked) [Compound 111] |
| 22 |  | 28 | 14 |  | CC1CCCC1N1C(=O)C2(CC2)c2cnc(NC3CCN(S(=O)(=O)N4CCC5(CCN(C(=O)CCCCc6ccc7c(c6)n(C)c(=O)n7C6CCC(=O)NC6=O)C5)C4)CC3)nc21 (centres unmarked) [Compound 112] |
| 21 |  | 6 | 28 |  | CC1CCCC1N1C(=O)C2(CC2)c2cnc(NC3CCN(S(=O)(=O)N4CCCN(C(=O)CCCCc5ccc6c(c5)n(C)c(=O)n6C5CCC(=O)NC5=O)CC4)CC3)nc21 (centres unmarked) [Compound 113] |
| 76 | 7 | 14 | 44 |  | Cn1nc(N2CCC(=O)NC2=O)c2ccc(C3CCN(Cc4cccc(S(=O)(=O)N5CCC(Nc6ncc7c(n6)N([C@@H]6CCC[C@@H](O)C6)C(=O)C76CC6)CC5)c4)CC3)cc21 [Compound 118, 1-(6-(1-(3-((4-((7′-((1R,3R)-3-hydroxycyclohexyl)-6′-oxo-6′,7′-dihydrospiro[cyclopropane-1,5′-pyrrolo[2,3-d]pyrimidin]-2′-yl)amino)piperidin-1-yl)sulfonyl)benzyl)piperidin-4-yl)-1-methyl-1H-indazol-3-yl)dihydropyrimidine-2,4(1H,3H)-dione] |
